The record followed here is ChEMBL document CHEMBL4043113, “A novel antihypertension agent, sargachromenol D from marine brown algae, Sargassum siliquastrum, exerts dual action as an L-type Ca2+ channel blocker and endothelin A/B2 receptor antagonist” (Bioorg Med Chem, 2017).

Assay [1] is described as follows: Antagonist activity at New Zealand rabbit L-type calcium channel assessed as dilation of K+-depolarization induced basilary artery contraction measured after 20 mins. Also on record: species or system Oryctolagus cuniculus.
The species named for a further assay is Oryctolagus cuniculus. The assay is described as follows: (§1) Antagonist activity at New Zealand rabbit endothelin A/B2 receptor assessed as dilation of endothelin-1 induced basilary artery contraction measured after 20 mins.
A short description of assay [2]: as §1. Also on record: species or system Oryctolagus cuniculus.

Structures are written as SMILES. Calls of active or inactive are those of the source. The calls are words filed in the database; no cut-off is given here.

In the case of `COCCOC(=O)C1=C(C)NC(C)=C(C(=O)OC(C)C)C1c1cccc([N+](=O)[O-])c1` (stereo unspecified) [NIMODIPINE], in assay [1], the EC50 came to 520 nM. As to `C/C(=C\CCC(C)O)CCC/C(C)=C/C(=O)CC(C)C` (stereo unspecified), the EC50 in assay [1] was 3520 nM. Moreover, the outcome in the assay filed under Oryctolagus cuniculus was inactive.

Regarding `COc1ccccc1Oc1c(NS(=O)(=O)c2ccc(C(C)(C)C)cc2)nc(-c2ncccn2)nc1OCCO` [BOSENTAN], the EC50 in assay [2] is 530 nM.

In the case of `CC(=O)CC/C=C(\C)CCC/C(C)=C\C(=O)CC(C)C`, the outcome in the assay listed under Oryctolagus cuniculus was inactive. Same read-out and setting: the entry for `CC(=O)CC/C=C(\C)CCC/C(C)=C/C(=O)CC(C)C` is “inactive”.

The EC50 is the concentration that produces a half-maximal response.
